Experimental data as given in US7118899B2, “Detection of transmembrane potentials by optical methods” (The Regents of the University of California, priority 2001, dated 2006).

What was measured:
L-M(TK^−) cells [1] = test: Oxonol displacement currents (membrane translocation), whole-cell voltage clamp; type: cell-based; details: for translocation time constant: voltage clamped mammalian cells
Experimental: (§1) All cells were grown and handled like L-M(TK^−) except where noted. L-M(TK^−) cells were grown in Dulbecco's Modified Eagle Media (Gibco; Grand Island, N.Y.) with 10% fetal bovine serum (FBS) and 1% penicillin streptomycin (PS) (Gemini; Calabasas, Calif.). B104 cells were differentiated with 1 μM retinoic acid for 5 days prior to use. The cells were plated on glass coverslips at least one day before use. The adherent cells were washed and maintained in 2.5–3.0 mL of HBSS with 1 g/L glucose and 20 mM HEPES at pH 7.4. A freshly prepared 75 μM aqueous solution of the appropriate oxonol was made prior to an experiment from a DMSO stock solution. The cells were stained by mixing 100 μL of the oxonol solution with 750 μL of the bath and then adding the diluted solution to the cells. The dye was left for 30–40 minutes at a bath concentration of […]. 1.5 mM β-cyclodextrin in the bath solution was necessary for cell loading of DiSBA-C6-(3). The butyl and ethyl derivatives were water-soluble enough to load cells with out β-cyclodextrin complexation. DiSBA-C10-(3) was loaded in a pH 7.4 solution containing 290 mM sucrose and 10 mM HEPES, 364 mOsm, for 10 min at a bath concentration of […]. DiSBA-C10-(3) labeling was quenched by replacing the bath with HBSS solution. The cells were stained with 15 µg/mL of FL-WGA for 15 minutes. The B104 cells required a 125 µg/mL bath concentration to give satisfactory lectin staining. The excess dyes were removed with repeated washes with HBSS. If the excess ethyl or butyl oxonol derivatives were left in the bath, slow currents and fluorescence changes due to redistribution of the dyes into the cell were observed during depolarizations greater than 1 s. The cardiac myocytes [Henderson, S. A., Spencer, M., Sen, A., Kumar, C., Siddiqui, M. A. Q., and Chien, K. R. 1989. Structure organization, and expression of the rat cardiac myosin light chain-2 gene. J. Biol. Chem. 264:18142–18146] were a gift of Professor Kenneth Chien, UCSD. The Jurkat lymphocyte suspensions were grown in RPMI media with 5% heat inactivated FBS and 1% PS. 15–20 mL aliquots of the cellular suspension were washed three times before and after dye staining by centrifugation at 100×g for 4 minutes followed by additions of fresh HBSS.
Patch clamp recording were made using an Axopatch 1-D amplifier equipped with a CV-4 headstage from Axon Instruments (Foster City, Calif.). The data were digitized and stored using the PCLAMP software. The pH 7.4 intracellular solution used contained 125 mM potassium gluconate, 1 mM CaCl2.2H2O, 2 mM MgCl2.6H2O, 11 mM EGTA, and 10 mM HEPES. For the B104 cells, 4 mM ATP and 0.5 mM GTP were added.
The translocation rates were studied in L-M(TK^−) cells using whole-cell voltage clamp recording. The L-M(TK^−) cells were chosen because they have very low background currents and are easy to patch clamp. These cells have a resting potential of −5 mV and no evident voltage activated currents.
12.5 ms long voltage steps at 15 mV increments were applied to the cell, from a holding potential of −70 mV. The larger, faster transients due to simple membrane capacitance transient could be minimized using the capacitance and series resistance compensation capabilities of the Axopatch amplifier, allowing the displacement currents to be clearly observed. The currents are due to redistribution of the membrane-bound oxonol in response to 8 depolarizations. The time constant for the displacement current is 2 ms for 120 mV depolarization. Equal amounts of charge move at the onset and conclusion of the voltage step, but in opposite directions, consistent with redistribution of stored ions from one energy minimum to the other across the plasma membrane. Furthermore, the induced capacitance dq/dV from the oxonol movement is calculated to be ˜5 pF for 100 mV depolarization. This value corresponds to roughly one third the membrane capacitance without the dye. […] The optimum density of sodium channels in an unmyelinated nerve. Philos. Trans. R. Soc. […]

neuroblastoma = details: cited from earlier work
L-M(TK^−) cells [2] = test: Voltage-sensitive FRET fluorescence changes in voltage clamped L-M(TK^−) cells; type: cell-based
Experimental: as §1, with “The excess dyes were removed with repeated washes with HBSS.” left out, “The cardiac myocytes [Henderson, S. A., Spencer, M., Sen, A., Kumar, C., Siddiqui, M. A. Q., and Chien, K. R. 1989. Structure organization, and expression of the rat cardiac myosin light chain-2 gene. J. Biol. Chem. 264:18142–18146] were a gift of Professor Kenneth Chien, UCSD. The Jurkat lymphocyte suspensions were grown in RPMI media with 5% heat inactivated FBS and 1% PS. 15–20 mL aliquots of the cellular suspension were washed three times before and after dye staining by centrifugation at 100×g for 4 minutes followed by additions of fresh HBSS.” left out
(§2) The fluorescently labeled cells were excited with light from a 75 W xenon lamp passed through 450–490 nm excitation interference filters. […] The long wavelength Texas Red fluorescence was passed through a 605 nm DF55 bandpass filter. Voltage dependent fluorescence changes in single cells were measured using a Nikon microscope attached to a Photoscan II photometer equipped with two R928 PMTs for dual emission recordings. […]

B104 neuroblastoma cells = test: Voltage-sensitive FRET in differentiated B104 neuroblastoma cells; type: cell-based; details: oxonol as FRET donor to Cy5 labeled PE
Experimental: (§3) All cells were grown and handled like L-M(TK^−) except where noted. L-M(TK^−) cells were grown in Dulbecco's Modified Eagle Media (Gibco; Grand Island, N.Y.) with 10% fetal bovine serum (FBS) and 1% penicillin streptomycin (PS) (Gemini; Calabasas, Calif.). B104 cells were differentiated with 1 μM retinoic acid for 5 days prior to use. The cells were plated on glass coverslips at least one day before use. The adherent cells were washed and maintained in 2.5–3.0 mL of HBSS with 1 g/L glucose and 20 mM HEPES at pH 7.4. A freshly prepared 75 μM aqueous solution of the appropriate oxonol was made prior to an experiment from a DMSO stock solution. […] If the excess ethyl or butyl oxonol derivatives were left in the bath, slow currents and fluorescence changes due to redistribution of the dyes into the cell were observed during depolarizations greater than 1 s. […]
as §2

astrocytoma cells = test: Pentamethine oxonol translocation, displacement currents in voltage-clamped astrocytoma cells; type: cell-based; details: for translocation time constant (crosses the membrane): pentamethine oxonols, DiSBA-C6-(5) value at 20; for displacement current time constant: voltage steps of +20–120 mV
Excerpt: The membrane translocation rates for the pentamethines are 5–8 times faster than the trimethine analogues. […] The trimethine analogue translocates […] under identical conditions. The displacement currents of DiSBAC6(5) decay very rapidly and are difficult to separate from the cell capacitance. As a result of the large voltage-dependent signal from the Cou-PE/DiSBAC6(5) pair, it was possible to optically measure the speed of voltage response of DiSBAC6(5). The time constant for DiSBAC6(5) translocation was measured optically at 0.383±0.032 ms in response to a 100 mV depolarization step, using FRET from asymmetrically labeled Cou-PE. The enhanced translocation rates result from the greater charge delocalization and slightly more hydrophobicity of the pentamethine oxonols. The rapid voltage response of DiSBAC6(5) is the fastest known for a permeant, highly fluorescent molecule. The submillisecond response is fast enough to accurately register action potentials of single neurons.

1321N astrocytoma cells = test: Voltage-sensitive FRET fluorescence changes in voltage clamped astrocytoma cells; type: cell-based; details: 100 mV depolarization step, FRET from asymmetrically labeled Cou-PE
Experimental: as §3, §2

[3] = tested on: targeted GFP expressing cells; test: Temporal response of the GFP/oxonol FRET change; type: cell-based; details: oxonol acceptors; identical to displacement current time constants
Excerpt: The temporal response of the GFP/oxonol FRET change is dependent on the oxonol translocation rate and follows the previously observed trend with oxonol acceptors, faster responses with more hydrophobic acceptors. The measured time constants for the ethyl and butyl oxonol acceptors are ˜50 and ˜5 ms respectively in the targeted GFP expressing cells. The FRET response and the electrophysiologically measured displacement currents have identical time constants. The measured response times are 2–4 fold faster than previously reported and may be a property of the cells used or from a slight difference in temperature.

Jurkat cell suspensions = test: Quenching of FL-WGA fluorescence by oxonol titration in cell suspensions; type: cell-based; details: cells labeled with FL-WGA
Experimental: as §3
To transduce charge displacements into optical signals, the oxonol fluorescences at the intracellular and extracellular membrane binding sites is made different. Fluorescence asymmetry is created with the introduction of fluorescently labeled lectins bound to the extracellular membrane surface. […] The extinction coefficient and the fluorescence quantum yield of FL-WGA were measured to be 222,000 M^−1cm^−1 (˜3 fluorescein/protein) and 0.23, respectively. […]

[4] = voltage-clamped fibroblasts, 100 mV depolarization at 20 C

## CCCCCCCCCCN1C(=O)C(=CC=Cc2c(O)n(CCCCCCCCCC)c(=S)n(CCCCCCCCCC)c2=O)C(=O)N(CCCCCCCCCC)C1=S [DiSBA-C10-(3)]
L-M(TK^−) cells [1]; compared with DiSBA-C6-(3), 20 C
  displacement currents (in words): approximately the same speed
L-M(TK^−) cells [1]
  translocation time constant: < 2 ms
L-M(TK^−) cells [1]; [4]
  displacement current time constant: about 2 ms

## CCCCCN(CCCCC)c1ccc(/C=C/C=C/c2cc[n+](CCCCS(=O)(=O)[O-])cc2)cc1 [RH-421]
neuroblastoma
  fluorescence change: 21 % /100 mV

## CCCCCCN1C(=O)C(=CC=Cc2c(O)n(CCCCCC)c(=S)n(CCCCCC)c2=O)C(=O)N(CCCCCC)C1=S [DiSBA-C6-(3), (1,3-dihexyl-2-thiobarbiturate)trimethine oxonol]
L-M(TK^−) cells [2]; oxonol as FRET donor to TR-WGA
  response time (in words): same response time as FL-WGA/DiSBA-C6-(3)
  signal change (in words): only one half that for FL-WGA/DiSBA-C6-(3)
B104 neuroblastoma cells
  ratio changes: 5–15 %/100 mV
L-M(TK^−) cells [1]; 120 mV depolarization, holding potential −70 mV, 20 C
  time constant for the displacement current: 2 ms
L-M(TK^−) cells [1]; fit to Eq. 2, FIG. 5, Vh=−5 mV and β=0.42
  max, time constant for translocation at V=Vh: 2.9 ms
L-M(TK^−) cells [1]
  translocation time constant: < 3 ms
L-M(TK^−) cells [1]; [4]
  displacement current time constant: about 2 ms

## CCCCN1C(=O)C(=CC=CC=Cc2c(O)n(CCCC)c(=S)n(CCCC)c2=O)C(=O)N(CCCC)C1=S [DiSBA-C4-(5)]
Astrocytoma cells
  translocation rate relative to the trimethine oxonol analogues: six times faster than the corresponding trimethine oxonol
  translocation time constant (crosses the membrane): < 3 ms
  displacement current time constant: ~2 ms

## CCCCCCN1C(=O)C(=CC=CC=Cc2c(O)n(CCCCCC)c(=S)n(CCCCCC)c2=O)C(=O)N(CCCCCC)C1=S [DiSBA-C6-(5), Bis-(1,3-dihexyl-2-thiobarbiturate)-pentamethineoxonol]
1321N astrocytoma cells
  time constant for translocation, measured optically: 0.383 ± 0.032 ms
Astrocytoma cells
  response time: less than 1 ms
  translocation time constant (crosses the membrane): ~0.4 ms

## CCCCN1C(=O)C(=CC=Cc2c(O)n(CCCC)c(=S)n(CCCC)c2=O)C(=O)N(CCCC)C1=S [DiSBA-C4-(3), Bis-(1,3-dibutyl-2-thiobarbiturate)-trimethineoxonol]
L-M(TK^−) cells [2]; from time constants at 20 C and 29 C
  activation energy of translocation: ~17 kcal/mol
[3]
  time constant of the FRET response: ~5 ms
Jurkat cell suspensions
  lectin fluorescence intensity quenched: up to 30%
L-M(TK^−) cells [1]; 20 C
  displacement current time constant: ~18 ms
Astrocytoma cells
  displacement current time constant: ~18 ms
